US20230295197A1, “STAT5 and STAT6 Degraders and Uses Thereof” (REGENTS OF THE UNIVERSITY OF MICHICAN, priority 2022, published 2023)
Read-outs that look alike come from different tables or passages of the source.

Biological target: T1, STAT6 (Homo sapiens, UniProt P42226)
T1 construct: endogenous in cells; host or cells: MOLM-16, KU-812, SKNO1, MB231, L1236
T1 sequence (P42226 1-847): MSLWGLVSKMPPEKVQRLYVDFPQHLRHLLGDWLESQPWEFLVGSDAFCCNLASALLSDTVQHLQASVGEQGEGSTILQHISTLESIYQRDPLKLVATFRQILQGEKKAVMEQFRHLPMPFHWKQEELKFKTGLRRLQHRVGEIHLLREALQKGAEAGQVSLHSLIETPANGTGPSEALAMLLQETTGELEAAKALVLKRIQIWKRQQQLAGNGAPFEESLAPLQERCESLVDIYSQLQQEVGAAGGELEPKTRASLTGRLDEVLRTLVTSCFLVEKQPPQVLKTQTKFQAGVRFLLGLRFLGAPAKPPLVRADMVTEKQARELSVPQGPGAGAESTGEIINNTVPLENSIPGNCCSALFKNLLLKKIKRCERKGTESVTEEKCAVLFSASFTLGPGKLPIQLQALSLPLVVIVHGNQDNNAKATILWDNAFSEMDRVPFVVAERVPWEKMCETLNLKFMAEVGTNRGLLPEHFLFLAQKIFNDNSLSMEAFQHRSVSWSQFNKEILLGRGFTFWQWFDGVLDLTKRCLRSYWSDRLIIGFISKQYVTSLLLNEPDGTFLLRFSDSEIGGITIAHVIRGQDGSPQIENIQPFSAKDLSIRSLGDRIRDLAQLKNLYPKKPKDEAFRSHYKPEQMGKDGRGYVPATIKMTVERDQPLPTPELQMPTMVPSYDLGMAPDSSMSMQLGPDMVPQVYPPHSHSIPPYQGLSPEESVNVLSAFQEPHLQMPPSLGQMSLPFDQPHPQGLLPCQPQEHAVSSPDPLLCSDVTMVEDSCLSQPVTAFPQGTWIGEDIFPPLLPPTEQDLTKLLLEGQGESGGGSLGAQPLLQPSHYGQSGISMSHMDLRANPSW
Assay: Immunoblotting (Western blot) analysis of STAT6 degradation efficiency of degraders in treated cells
Assay type: cell-based
Outline: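 Each data point uses roughly one million cells dosed as indicated; pellets are lysed on ice, freeze-thawed, and clarified. Reduced, denatured samples (95 °C, 5 min) run on SDS gels, then membranes receive rabbit mAbs to STAT5 or STAT6 plus mouse anti-GAPDH overnight, followed by dye-labelled secondaries for fluorescence imaging.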

[1] = L1236 cells, read-out: DC50 S6 L1236
[2] = MOLM-16 cells, class symbols, read-out: DC50 S6 MOLM-16

| SMILES | DC50 [2] [µM] | DC50 [1] [µM] | DC50 (MB231 cells, read-out: DC50 S6 MB231) [µM] |
| --- | --- | --- | --- |
| Cc1ncsc1-c1ccc(CNC(=O)[C@@H]2C[C@@H](O)CN2C(=O)[C@@H](NC(=O)CCCCCCNC(=O)CO[C@@H]2C[C@@H](C(=O)N(C)c3ccc(Br)cc3)N(C(=O)[C@@H](NC(=O)c3cc4cc(C(F)(F)P(=O)(O)O)ccc4s3)C(C)(C)C)C2)C(C)(C)C)cc1 [Compound 418, ((2-(((S)-1-((2S,4R)-2-((4-bromophenyl)(methyl)carbamoyl)-4-(2-((7-(((S)-1-((2S,4R)-4-hydroxy-2-((4-(4-methylthiazol-5-yl)benzyl)carbamoyl)pyrrolidin-1-yl)-3,3-dimethyl-1-oxobutan-2-yl)amino)-7-oxoheptyl)amino)-2-oxoethoxy)pyrrolidin-1-yl)-3,3-dimethyl-1-oxobutan-2-yl)carbamoyl)benzo[b]thiophen-5-yl)difluoromethyl)phosphonic acid] | – | > 10 | > 10 |
| Cc1ncsc1-c1ccc([C@H](C)NC(=O)[C@@H]2C[C@@H](O)CN2C(=O)[C@@H](NC(=O)CNC(=O)CC(=O)N2CCN(C(=O)[C@@H](NC(=O)c3cc4cc(C(F)(F)P(=O)(O)O)ccc4s3)C(C)(C)C)[C@H](C(=O)N3CCC[C@H](c4ccccc4)C3)C2)C(C)(C)C)cc1 [Compound 452, (difluoro(2-(((S)-1-((S)-4-(3-((2-(((S)-1-((2S,4R)-4-hydroxy-2-(((S)-1-(4-(4-methylthiazol-5-yl)phenyl)ethyl)carbamoyl)pyrrolidin-1-yl)-3,3-dimethyl-1-oxobutan-2-yl)amino)-2-oxoethyl)amino)-3-oxopropanoyl)-2-((R)-3-phenylpiperidine-1-carbonyl)piperazin-1-yl)-3,3-dimethyl-1-oxobutan-2-yl)carbamoyl)benzo[b]thiophen-5-yl)methyl)phosphonic acid] | > 10 | > 10 | – |
| CC(C)(C)[C@H](NC(=O)c1cc2cc(C(F)(F)P(=O)(O)O)ccc2s1)C(=O)N1CCN(C(=O)CC(=O)NCCCC#Cc2ccc3c(c2)C(=O)N(C2CCC(=O)NC2=O)C3=O)C[C@H]1C(=O)N1CCC[C@H](c2ccccc2)C1 (stereo partly drawn) [Compound 526, ((2-(((2S)-1-((2S)-4-(3-((5-(2-(2,6-dioxopiperidin-3-yl)-1,3-dioxoisoindolin-5-yl)pent-4-yn-1-yl)amino)-3-oxopropanoyl)-2-((R)-3-phenylpiperidine-1-carbonyl)piperazin-1-yl)-3,3-dimethyl-1-oxobutan-2-yl)carbamoyl)benzo[b]thiophen-5-yl)difluoromethyl)phosphonic acid] | > 10 | – | – |
| Cc1cc([C@H](C(=O)N2C[C@H](O)C[C@H]2C(=O)N[C@@H](CC(=O)NCCOCCOCCNC(=O)CO[C@@H]2C[C@@H](C(=O)N(C)c3ccc(Br)cc3)N(C(=O)[C@@H](NC(=O)c3cc4cc(C(F)(F)P(=O)(O)O)ccc4s3)C(C)(C)C)C2)c2ccc(-c3scnc3C)cc2)C(C)C)on1 [Compound 424, ((2-(((S)-1-((2S,4R)-2-((4-bromophenyl)(methyl)carbamoyl)-4-(((S)-1-((2S,4R)-4-hydroxy-1-((R)-3-methyl-2-(3-methylisoxazol-5-yl)butanoyl)pyrrolidin-2-yl)-3-(4-(4-methylthiazol-5-yl)phenyl)-1,5,16-trioxo-9,12-dioxa-2,6,15-triazaheptadecan-17-yl)oxy)pyrrolidin-1-yl)-3,3-dimethyl-1-oxobutan-2-yl)carbamoyl)benzo[b]thiophen-5-yl)difluoromethyl)phosphonic acid] | > 10 | – | – |
| CC(C)(C)[C@H](NC(=O)c1cc2cc(C(F)(F)P(=O)(O)O)ccc2s1)C(=O)N1CCN(C(=O)CC(=O)NCCCCCCCCC#Cc2ccc3c(c2)C(=O)N(C2CCC(=O)NC2=O)C3=O)C[C@H]1C(=O)N1CCC[C@H](c2ccccc2)C1 (stereo partly drawn) [Compound 532, ((2-(((2S)-1-((2S)-4-(3-((10-(2-(2,6-dioxopiperidin-3-yl)-1,3-dioxoisoindolin-5-yl)dec-9-yn-1-yl)amino)-3-oxopropanoyl)-2-((R)-3-phenylpiperidine-1-carbonyl)piperazin-1-yl)-3,3-dimethyl-1-oxobutan-2-yl)carbamoyl)benzo[b]thiophen-5-yl)difluoromethyl)phosphonic acid] | > 10 | – | – |

Further lines, with some results ahead:

| DC50 [2] [µM] | SMILES | DC50 [1] [µM] | DC50 (MB231 cells, read-out: DC50 S6 MB231) [µM] |
| --- | --- | --- | --- |
| > 10 | CC(C)(C)[C@H](NC(=O)c1cc2cc(C(F)(F)P(=O)(O)O)ccc2s1)C(=O)N1Cc2cc(OCC(=O)NCCCCCCCCCC#Cc3ccc4c(c3)C(=O)N(C3CCC(=O)NC3=O)C4=O)ccc2C[C@H]1C(=O)N1CCC[C@H](c2ccccc2)C1 (stereo partly drawn) [Compound 562, ((2-(((2S)-1-((3S)-7-(2-((11-(2-(2,6-dioxopiperidin-3-yl)-1,3-dioxoisoindolin-5-yl)undec-10-yn-1-yl)amino)-2-oxoethoxy)-3-((R)-3-phenylpiperidine-1-carbonyl)-3,4-dihydroisoquinolin-2(1H)-yl)-3,3-dimethyl-1-oxobutan-2-yl)carbamoyl)benzo[b]thiophen-5-yl)difluoromethyl)phosphonic acid] | – | – |
| > 10 | CC(C)(C)[C@H](NC(=O)c1cc2cc(C(F)(F)P(=O)(O)O)ccc2s1)C(=O)N1C[C@@H](OCC(=O)NCCC#Cc2ccc3c(c2)C(=O)N(C2CCC(=O)NC2=O)C3=O)C[C@H]1C(=O)N1CCO[C@H](c2ccccc2)C1 (stereo partly drawn) [Compound 482, ((2-(((2S)-1-((2S,4S)-4-(2-((4-(2-(2,6-dioxopiperidin-3-yl)-1,3-dioxoisoindolin-5-yl)but-3-yn-1-yl)amino)-2-oxoethoxy)-2-((R)-2-phenylmorpholine-4-carbonyl)pyrrolidin-1-yl)-3,3-dimethyl-1-oxobutan-2-yl)carbamoyl)benzo[b]thiophen-5-yl)difluoromethyl)phosphonic acid] | – | – |
| < 0.1 | CC(C)(C)[C@H](NC(=O)c1cc2cc(C(F)(F)P(=O)(O)O)ccc2s1)C(=O)N1C[C@@H](OCCCCCCCCC#Cc2cccc3c2CN(C2CCC(=O)NC2=O)C3=O)C[C@H]1C(=O)N1CCO[C@H](c2ccccc2)C1 (stereo partly drawn) [Compound 586, ((2-(((2S)-1-((2S,4S)-4-((10-(2-(2,6-dioxopiperidin-3-yl)-1-oxoisoindolin-4-yl)dec-9-yn-1-yl)oxy)-2-((R)-2-phenylmorpholine-4-carbonyl)pyrrolidin-1-yl)-3,3-dimethyl-1-oxobutan-2-yl)carbamoyl)benzo[b]thiophen-5-yl)difluoromethyl)phosphonic acid] | 1 to 10 | – |
| > 10 | O=C1CCC(N2Cc3cc(C#CCCCCCC(=O)N4CC[C@H]5CC[C@@H](C(=O)N6CCOC(c7ccc(F)c(Cl)c7)C6)N5C(=O)[C@@H](NC(=O)c5cc6cc(C(F)(F)P(=O)(O)O)ccc6s5)C4)ccc3C2=O)C(=O)N1 (stereo partly drawn) [Compound 575, ((2-(((5S,8S,10aR)-8-(2-(3-chloro-4-fluorophenyl)morpholine-4-carbonyl)-3-(8-(2-(2,6-dioxopiperidin-3-yl)-1-oxoisoindolin-5-yl)oct-7-ynoyl)-6-oxodecahydropyrrolo[1,2-a][1,5]diazocin-5-yl)carbamoyl)benzo[b]thiophen-5-yl)difluoromethyl)phosphonic acid] | > 10 | – |
| > 10 | CC(C)(C)[C@H](NC(=O)c1cc2cc(C(F)(F)P(=O)(O)O)ccc2s1)C(=O)N1Cc2cc(OCC(=O)NCCC#Cc3cccc4c3C(=O)N(C3CCC(=O)NC3=O)C4=O)ccc2C[C@H]1C(=O)N1CCC[C@H](c2ccccc2)C1 (stereo partly drawn) [Compound 551, ((2-(((2S)-1-((3S)-7-(2-((4-(2-(2,6-dioxopiperidin-3-yl)-1,3-dioxoisoindolin-4-yl)but-3-yn-1-yl)amino)-2-oxoethoxy)-3-((R)-3-phenylpiperidine-1-carbonyl)-3,4-dihydroisoquinolin-2(1H)-yl)-3,3-dimethyl-1-oxobutan-2-yl)carbamoyl)benzo[b]thiophen-5-yl)difluoromethyl)phosphonic acid] | – | – |
